Laboratory results from patent publication US10370371B2, “Substituted pyrimidine Bmi-1 inhibitors” (PTC Therapeutics, Inc., priority 2013, dated 2019).

test system: Bmi-1 protein; experiment: Sandwich ELISA Assay (Bmi-1 protein level in HT-1080 cells); type: cell-based
Experimental: Cell Seeding and Compound Treatment (Day 1):
HT-1080 cells were seeded at 8000 cells/well (50 μL) in 96-well tissue culture plates. After the cells became adherent (3-4 hours), 2× diluted stocks of test compounds in 50 μL DMEM containing 1% DMSO (final DMSO concentration was 0.5%) were added and the plates were incubated at 37° C. under 5% CO2 for 40-48 hours.
ELISA Plate First Antibody Preparation (Day 2):
The First Antibody (Millipore Mouse, monoclonal to mouse Bmi-1, clone F6, catalog #05-637) diluted to 2 μg/mL in PBS was added (100 μL) to each well of a Nunc MaxiSorp 96-well ELISA plate. The plate was covered with a plate seal and allowed to stand overnight.
Cell Lysate Preparation (Day 3):
Fresh Lysis buffer (1×) was prepared on the day of the assay as follows: 1 mM EDTA, 150 mM NaCl, 0.5% Triton-X 100, 10 mM NaF, 20 mM B-Glycerophosphate, 1 mM DTT (in PBS, pH 7.2-7.4) and HALT protease inhibitor cocktail (1×) (Pierce #78410).
Lysis Buffer (1×, 40 μL) was added to each well and the plate was shaken for 5-10 minutes on an orbital shaker to allow cell lysis, then diluent (1% BSA in PBS in 0.5% NP40) (100 μL) was added to each well.
A standard curve was prepared at the following Bmi-1 concentrations: 8000, 4000, 2000, 1000, 500, 250, 125 and 0 pg/mL. The Bmi-1 Recombinant Protein Standard (Novus Biologicals PCGF4 Recombinant Protein (P01), catalog # H00000648-P01) used to prepare the standard curve was stored at −80° C. On first thaw, the Recombinant Protein Standard was diluted to 10 μg/μL in Blocking Buffer (1% BSA in PBS; BSA: Fisher Scientific Catalog #1600-100). Aliquots were taken and refrozen at −80° C. The aliquots may be kept at 4° C. and reused after first thaw, but only within 1-2 weeks. The Recombinant Protein Standard contains a GST-fusion tag that appears at approximately 70 Kda on Western Blot.
The prepared ELISA plate was washed 3× with Wash Buffer (0.05% Tween-20 in PBS). The final wash was removed from the plate and the plate was blotted dry. Blocking Buffer (300 μL) (1% BSA in PBS) was added to each well. The plate was covered with a plate seal and incubated at room temperature for 1 hour. The blocked plate was washed 3× with Wash Buffer, then the final wash was removed and the plate was blotted dry. The previously prepared samples and standards were added (100 μL/well) and the plate was covered with a plate seal and incubated at 4° C. overnight.
The prepared ELISA plate was removed from incubation and allowed to stand at room temperature for 30 minutes, then washed and blotted dry. The Second Antibody (Cell Signaling Rabbit anti-Bmi-1, Cat#2830) diluted to 1:600 in Blocking Buffer was added (100 μL) to each well, except as needed for background control wells. The plate was covered with a plate seal and incubated for 1.5 hrs at room temperature.
The ELISA plate was washed and blotted dry as previously described. The Third Antibody (Cell Signaling HRP conjugated anti-rabbit IgG (CellSignaling, Cat#:7074) diluted to 1:300 in Blocking Buffer was added (100 μL) to each well, except as needed for background control wells. The plate was incubated for 1 hr at room temperature.
The plate was washed and blotted dry, then a previously prepared TMB substrate (TMB substrate kit, Pierce catalog #34021) (prepared by mixing kit reagents 1:1) (100 μL) was added per well. The plate was incubated for 20-30 minutes at room temperature in the dark, then Stop Solution (2 M sulfuric acid in water) (50 μL) was added per well. The plates were read at OD450 (experimental) and OD570 (reference).

EC50, 1 to 10 nM:
Cc1ccc2nc(C)n(-c3cc(N)nc(Nc4ccc(OC(F)F)cc4)n3)c2c1 [Cpd 54, N^2-[4-(difluoromethoxy)phenyl]-6-(2,6-dimethyl-1H-benzimidazol-1-yl)pyrimidine-2,4-diamine]

EC50, 10 to 100 nM:
Cc1nc2c(F)cccc2n1-c1cc(N)nc(Nc2ccc(C(F)(F)F)cc2)n1 [Cpd 35, 6-(4-fluoro-2-methyl-1H-benzimidazol-1-yl)-N^2-[4-(trifluoromethyl)phenyl]pyrimidine-2,4-diamine]
Cc1nc2ccccc2n1-c1cc(N)nc(Nc2ccc(C(F)(F)F)nc2)n1 [Cpd 37, 6-(2-methyl-1H-benzimidazol-1-yl)-N^2-[6-(trifluoromethyl)pyridin-3-yl]pyrimidine-2,4-diamine]
Cc1nc2cc(F)ccc2n1-c1cc(N)nc(Nc2ccc(C(F)(F)F)nc2)n1 [Cpd 39, 6-(5-fluoro-2-methyl-1H-benzimidazol-1-yl)-N^2-[6-(trifluoromethyl)pyridin-3-yl]pyrimidine-2,4-diamine]
Cc1nc2ccc(F)cc2n1-c1cc(N)nc(Nc2ccc(C(F)(F)F)nc2)n1 [Cpd 40, 6-(6-fluoro-2-methyl-1H-benzimidazol-1-yl)-N^2-[6-(trifluoromethyl)pyridin-3-yl]pyrimidine-2,4-diamine]
Cc1nc2ccc(Br)cc2n1-c1cc(N)nc(Nc2ccc(C(F)(F)F)cc2)n1 [Cpd 41, 6-(6-bromo-2-methyl-1H-benzimidazol-1-yl)-N^2-[4-(trifluoromethyl)phenyl]pyrimidine-2,4-diamine]
Cc1ccc2nc(C)n(-c3cc(N)nc(Nc4ccc(C(F)(F)F)cc4)n3)c2c1 [Cpd 42, 6-(2,6-dimethyl-1H-benzimidazol-1-yl)-N^2-[4-(trifluoromethyl)phenyl]pyrimidine-2,4-diamine]
CCc1nc2cc(F)ccc2n1-c1cc(N)nc(Nc2ccc(C(F)(F)F)nc2)n1 [Cpd 43, 6-(2-ethyl-5-fluoro-1-benzimidazol-1-yl)-N^2-[6-(trifluoromethyl)pyridin-3-yl]pyrimidine-2,4-diamine]
CCc1nc2ccc(F)cc2n1-c1cc(N)nc(Nc2ccc(C(F)(F)F)nc2)n1 [Cpd 44, 6-(2-ethyl-6-fluoro-1H-benzimidazol-1-yl)-N^2-[6-(trifluoromethyl)pyridin-3-yl]pyrimidine-2,4-diamine]
Cc1nc2ccc(Cl)cc2n1-c1cc(N)nc(Nc2ccc(C(F)(F)F)cc2)n1 [Cpd 45, 6-(6-chloro-2-methyl-1H-benzimidazol-1-yl)-N^2-[4-(trifluoromethyl)phenyl]pyrimidine-2,4-diamine]
Cc1nc2ncc(F)cn2c1-c1cc(N)nc(Nc2ccc(C(F)(F)F)cc2)n1 [Cpd 48, 6-(6-fluoro-2-methylimidazo[1,2-a]pyrimidin-3-yl)-N^2-[4-(trifluoromethyl)phenyl]pyrimidine-2,4-diamine]
Nc1cc(-c2c(C(F)(F)F)nc3ccc(F)cn23)nc(Nc2ccc(C(F)(F)F)cc2)n1 [Cpd 50, 6-[6-fluoro-2-(trifluoromethyl)imidazo[1,2-a]pyridin-3-yl]-N^2-[4-(trifluoromethyl)phenyl]pyrimidine-2,4-diamine]
Cc1nc2c(F)cccc2n1-c1cc(N)nc(Nc2ccc(OC(F)F)cc2)n1 [Cpd 51, N^2-[4-(difluoromethoxy)phenyl]-6-(4-fluoro-2-methyl-1H-benzimidazol-1-yl)pyrimidine-2,4-diamine]
Cc1ccc2nc(C)n(-c3cc(N)nc(Nc4ccc(C(F)(F)F)c(C)c4)n3)c2c1 [Cpd 53, 6-(2,6-dimethyl-1H-benzimidazol-1-yl)-N^2-[3-methyl-4-(trifluoromethyl)phenyl]pyrimidine-2,4-diamine]
Nc1cc(-c2c(C(F)(F)F)nc3ccc(F)cn23)nc(Nc2ccc(OC(F)F)cc2)n1 [Cpd 55, N^2-[4-(difluoromethoxy)phenyl]-6-[6-fluoro-2-(trifluoromethyl)imidazo[1,2-a]pyridin-3-yl]pyrimidine-2,4-diamine]
CCc1nc2ccccc2n1-c1nc(Nc2ccc(C(F)(F)F)cc2)nc(N)c1F [Cpd 57, 6-(2-ethyl-1H-benzimidazol-1-yl)-5-fluoro-N^2-[4-(trifluoromethyl)phenyl]pyrimidine-2,4-diamine]
Cc1nc2c(F)cc(F)cc2n1-c1cc(N)nc(Nc2ccc(OC(F)F)cc2)n1 [Cpd 60, N^2-[4-(difluoromethoxy)phenyl]-6-(4,6-difluoro-2-methyl-1H-benzimidazol-1-yl)pyrimidine-2,4-diamine]
Nc1cc(-n2c(C3CC3)nc3ccccc32)nc(Nc2ccc(C(F)(F)F)cc2)n1 [Cpd 61, 6-(2-cyclopropyl-1H-benzimidazol-1-yl)-N^2-[4-(trifluoromethyl)phenyl]pyrimidine-2,4-diamine]
Nc1cc(-n2c(C3CC3)nc3cc(F)c(F)cc32)nc(Nc2ccc(C(F)(F)F)cc2)n1 [Cpd 64, 6-(2-cyclopropyl-5,6-difluoro-1H-benzimidazol-1-yl)-N^2-[4-(trifluoromethyl)phenyl]pyrimidine-2,4-diamine]

EC50, 100 to 3000 nM:
Cc1nc2ccccc2n1-c1cc(Cl)nc(Nc2ccc(C(F)(F)F)nc2)n1 [Cpd 36, 4-chloro-6-(2-methyl-1H-benzimidazol-1-yl)-N-[6-(trifluoromethyl)pyridin-3-yl]pyrimidin-2-amine]
Cc1nc2ccc(F)cc2n1-c1cc(Cl)nc(Nc2ccc(C(F)(F)F)nc2)n1 [Cpd 38, 4-chloro-6-(6-fluoro-2-methyl-1H-benzimidazol-1-yl)-N-[6-(trifluoromethyl)pyridin-3-yl]pyrimidin-2-amine]
Cc1nc2ccc(Cl)cc2n1-c1cc(O)nc(Nc2ccc(C(F)(F)F)cc2)n1 [Cpd 46, 6-(6-chloro-2-methyl-1H-benzimidazol-1-yl)-2-{[4-(trifluoromethyl)phenyl]amino}pyrimidin-4-ol]
Cc1nc2cc(Cl)ccc2n1-c1cc(N)nc(Nc2ccc(C(F)(F)F)cc2)n1 [Cpd 47, 6-(5-chloro-2-methyl-1H-benzimidazol-1-yl)-N^2-[4-(trifluoromethyl)phenyl]pyrimidine-2,4-diamine]
Cc1nc2cc(F)cc(F)c2n1-c1cc(N)nc(Nc2ccc(OC(F)F)cc2)n1 [Cpd 49, N^2-[4-(difluoromethoxy)phenyl]-6-(5,7-difluoro-2-methyl-1H-benzimidazol-1-yl)pyrimidine-2,4-diamine]
Cc1cc(Nc2nc(N)cc(-n3c(C)nc4c(F)cccc43)n2)ccc1C(F)(F)F [Cpd 52, 6-(4-fluoro-2-methyl-1H-benzimidazol-1-yl)-N^2-[3-methyl-4-(trifluoromethyl)phenyl]pyrimidine-2,4-diamine]
Cc1nc2ccccc2n1-c1nc(Nc2ccc(C(F)(F)F)cc2)nc(N)c1F [Cpd 56, 5-fluoro-6-(2-methyl-1H-benzimidazol-1-yl)-N^2-[4-(trifluoromethyl)phenyl]pyrimidine-2,4-diamine]
Cc1nc2ccc(F)cc2n1-c1nc(Nc2ccc(C(F)(F)F)cc2)nc(N)c1F [Cpd 58, 5-fluoro-6-(6-fluoro-2-methyl-1H-benzimidazol-1-yl)-N^2-[4-(trifluoromethyl)phenyl]pyrimidine-2,4-diamine]
CCc1nc2ccc(F)cc2n1-c1nc(Nc2ccc(C(F)(F)F)cc2)nc(N)c1F [Cpd 59, 6-(2-ethyl-6-fluoro-1H-benzimidazol-1-yl)-5-fluoro-N^2-[4-(trifluoromethyl)phenyl]pyrimidine-2,4-diamine]
Cc1nc2ncccc2n1-c1nc(Nc2ccc(C(F)(F)F)cc2)nc(N)c1F [Cpd 62, 5-fluoro-6-(2-methyl-1H-imidazo[4,5-b]pyridin-1-yl)-N^2-[4-(trifluoromethyl)phenyl]pyrimidine-2,4-diamine]
